Assay results taken from ChEMBL document CHEMBL1201862, “PubChem BioAssay data set” (2004).
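Protocol summary: plate cells (96-well), add compound at 5 concentrations, incubate 48 h, interpolate endpoints linearly. GI50 marks 50% less growth.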 Activity calls are given as the source filed them. No stated cut-off is given here; in the data, active = GI50 up to about 1.1 µM and inactive = higher.

What was measured:
Test in all cases: NCI tumour cell line growth inhibition, 48 h
ACHN = test system: ACHN
CAKI-1 = test system: CAKI-1
COLO 205 = test system: COLO 205
HCC 2998 = test system: HCC 2998
HCT-15 = test system: HCT-15
K562 = test system: K562
LXFL 529 = test system: LXFL 529
NCI-H23 = test system: NCI-H23
OVCAR-3 = test system: OVCAR-3
OVCAR-4 = test system: OVCAR-4
OVCAR-5 = test system: OVCAR-5
SN12C = test system: SN12C
SNB-75 = test system: SNB-75
UACC-257 = test system: UACC-257
UO-31 = test system: UO-31
A498 = test system: A498
MDA-MB-435 = test system: MDA-MB-435
MDA-N = test system: MDA-N
NCI/ADR-RES = test system: NCI/ADR-RES
SF-539 = test system: SF-539

| SMILES | GI50 (ACHN) | GI50 (CAKI-1) | GI50 (COLO 205) | GI50 (HCC 2998) | GI50 (HCT-15) [µM] | GI50 (K562) | GI50 (LXFL 529) | GI50 (NCI-H23) | GI50 (OVCAR-3) | GI50 (OVCAR-4) | GI50 (OVCAR-5) | GI50 (SN12C) | GI50 (SNB-75) | GI50 (UACC-257) | GI50 (UO-31) | GI50 (A498) | GI50 (MDA-MB-435) | GI50 (MDA-N) | GI50 (NCI/ADR-RES) | GI50 (SF-539) |
| --- | --- | --- | --- | --- | --- | --- | --- | --- | --- | --- | --- | --- | --- | --- | --- | --- | --- | --- | --- | --- |
| O=C1C(Cl)C(c2ccccc2)N1n1cnc2ccccc2c1=O (stereo unspecified) | > 100 µM (inactive) | 37.8 µM (inactive) | > 100 µM (inactive) | > 100 µM (inactive) | > 100 | > 100 µM (inactive) | > 100 µM (inactive) | > 100 µM (inactive) | > 100 µM (inactive) | > 100 µM (inactive) | > 100 µM (inactive) | > 100 µM (inactive) | 19.4 µM (inactive) | > 100 µM (inactive) | 23.6 µM (inactive) |  |  |  |  |  |
| CC(=O)O[C@H]1C[C@H]2[C@@H]([C@H](OC(C)=O)C[C@@H]3CC4(CC[C@@]32C)OOC2(CCCCC2)OO4)[C@@H]2CC[C@H]([C@H](C)CCC(=O)O)[C@@]12C | 7.24 µM (inactive) | 7.1 µM (inactive) | 3.91 µM (inactive) | 12 µM (inactive) | 4.39 | 5.57 µM (inactive) |  | 4.13 µM (inactive) | 13.9 µM (inactive) | 2.55 µM (inactive) | 10.7 µM (inactive) | 6.81 µM (inactive) | 3.61 µM (inactive) | 11.4 µM (inactive) | 3.28 µM (inactive) | 13.3 µM (inactive) | 5.75 µM (inactive) | 8.75 µM (inactive) | 4.88 µM (inactive) | 7.85 µM (inactive) |
| CCCC[C@H]1CCN2C[C@@H](O)[C@@H](O)[C@H]2[C@@H]1O | > 100 µM (inactive) | > 100 µM (inactive) | > 100 µM (inactive) | > 100 µM (inactive) | > 100 | > 100 µM (inactive) |  | > 100 µM (inactive) | > 100 µM (inactive) | > 100 µM (inactive) | > 100 µM (inactive) | > 100 µM (inactive) | > 100 µM (inactive) | > 100 µM (inactive) | > 100 µM (inactive) | > 100 µM (inactive) | > 100 µM (inactive) | > 100 µM (inactive) | > 100 µM (inactive) | > 100 µM (inactive) |
| Cc1ccc2c(c1)CNc1ccc(C)cc1CN2 | > 100 µM (inactive) | > 100 µM (inactive) | > 100 µM (inactive) |  | > 100 | > 100 µM (inactive) | > 100 µM (inactive) | > 100 µM (inactive) | > 100 µM (inactive) | > 100 µM (inactive) | > 100 µM (inactive) | > 100 µM (inactive) | 3.19 µM (inactive) |  | > 100 µM (inactive) |  |  |  |  | > 100 µM (inactive) |
| COS(C)(=O)=O [METHANESULFONIC ACID METHYL ESTER] | > 2 µM (inactive) | > 2 µM (inactive) | > 2 µM (inactive) | > 2 µM (inactive) | > 2 | > 2 µM (inactive) |  | > 2 µM (inactive) | > 2 µM (inactive) | > 2 µM (inactive) | > 2 µM (inactive) | > 2 µM (inactive) | > 2 µM (inactive) | > 2 µM (inactive) | > 2 µM (inactive) | > 2 µM (inactive) | > 2 µM (inactive) | > 2 µM (inactive) | > 2 µM (inactive) | > 2 µM (inactive) |
| COc1ccc(N2C(=O)C3c4[nH]c5cccc(Cl)c5c4C4CCC(C(C)(C)C)CC4C3C2=O)cc1 (stereo unspecified) | > 100 µM (inactive) | > 100 µM (inactive) | > 100 µM (inactive) | > 100 µM (inactive) | > 100 | > 100 µM (inactive) |  | > 100 µM (inactive) | > 100 µM (inactive) | > 100 µM (inactive) | > 100 µM (inactive) | > 100 µM (inactive) | 19.1 µM (inactive) | > 100 µM (inactive) | > 100 µM (inactive) | 74.1 µM (inactive) | > 100 µM (inactive) | > 100 µM (inactive) | > 100 µM (inactive) | 64.7 µM (inactive) |
| CC(=O)c1cc2c(s1)C(=O)c1ccsc1C2=O | 0.215 µM (active) | 2.12 µM (inactive) | 19.1 µM (inactive) | 1.74 µM (inactive) | 0.179 | 0.407 µM (active) |  | 0.167 µM (active) | 0.22 µM (active) | 1.26 µM (inactive) | 0.74 µM (active) | 0.182 µM (active) | 0.192 µM (active) | 0.132 µM (active) | 0.243 µM (active) | 7.24 µM (inactive) | 0.0713 µM (active) | 0.0802 µM (active) | 0.378 µM (active) | 0.27 µM (active) |
| Cc1ccc(NC(=O)CCC/C(CC(=O)c2ccc(Br)cc2)=N/NC(=O)CC#N)cc1 | > 100 µM (inactive) |  | > 100 µM (inactive) | > 100 µM (inactive) |  |  | > 100 µM (inactive) | > 100 µM (inactive) | > 100 µM (inactive) | > 100 µM (inactive) | > 100 µM (inactive) | > 100 µM (inactive) | > 100 µM (inactive) | > 100 µM (inactive) | > 100 µM (inactive) |  |  |  |  |  |
| CSc1nc(Cl)c(Br)c(Sc2nc(N)nc3nc[nH]c23)n1 | 15.3 µM (inactive) | 3.42 µM (inactive) | 15.7 µM (inactive) | 3.79 µM (inactive) | 5.66 | 3.34 µM (inactive) | 5.79 µM (inactive) | 10.4 µM (inactive) | 15.2 µM (inactive) | 11 µM (inactive) | 11.8 µM (inactive) |  | 3.03 µM (inactive) | 13.9 µM (inactive) | 5.01 µM (inactive) |  |  |  |  | 2.81 µM (inactive) |
| COC(=O)C1Cc2c([nH]c3ccccc23)C(C2CCCCC2)N1 (stereo unspecified) | > 100 µM (inactive) | > 100 µM (inactive) | > 100 µM (inactive) | > 100 µM (inactive) | > 100 | > 100 µM (inactive) | > 100 µM (inactive) | > 100 µM (inactive) | > 100 µM (inactive) | > 100 µM (inactive) | > 100 µM (inactive) | > 100 µM (inactive) | > 100 µM (inactive) | > 100 µM (inactive) | > 100 µM (inactive) |  |  |  |  | > 100 µM (inactive) |
| CC1CC2C(=O)NC(=O)C2c2[nH]c3ccccc3c21 (stereo unspecified) | > 100 µM (inactive) | 42.8 µM (inactive) | > 100 µM (inactive) |  | > 100 | 91.2 µM (inactive) | > 100 µM (inactive) | > 100 µM (inactive) | 96.2 µM (inactive) | 92.7 µM (inactive) | > 100 µM (inactive) | 78.7 µM (inactive) | 1.53 µM (inactive) |  | 71.4 µM (inactive) |  |  |  |  | > 100 µM (inactive) |
| C=C1C[C@@H](O)[C@@H](Br)C(C)(C)[C@@]12C=CC(=O)CC2 | > 100 µM (inactive) | > 100 µM (inactive) | 1.77 µM (inactive) | > 78.7 µM (inactive) | > 100 | > 100 µM (inactive) |  | > 100 µM (inactive) | > 100 µM (inactive) | > 100 µM (inactive) | 3.18 µM (inactive) | > 100 µM (inactive) | > 63.2 µM (inactive) | > 100 µM (inactive) | > 96.4 µM (inactive) | > 100 µM (inactive) | > 100 µM (inactive) | > 100 µM (inactive) | > 100 µM (inactive) | > 100 µM (inactive) |
| Nc1ccc(C(=O)N2CCC[C@H]2CO)c(N)c1 | > 100 µM (inactive) | > 100 µM (inactive) | > 100 µM (inactive) | > 100 µM (inactive) | > 100 | > 100 µM (inactive) |  | > 100 µM (inactive) | > 100 µM (inactive) | > 100 µM (inactive) | > 100 µM (inactive) | > 100 µM (inactive) | > 100 µM (inactive) | > 100 µM (inactive) | > 100 µM (inactive) | > 100 µM (inactive) | > 100 µM (inactive) | > 100 µM (inactive) | > 100 µM (inactive) | > 100 µM (inactive) |
| O=C1C(N2CCN(c3ccccn3)CC2)=C(Cl)C(=O)c2ncccc21 | 2.14 µM (inactive) | 0.433 µM (active) | 1.96 µM (inactive) | > 4.63 µM (inactive) | 1.95 | 1.51 µM (inactive) |  | 1.85 µM (inactive) | 1.89 µM (inactive) | 0.637 µM (active) | > 10 µM (inactive) | 1.66 µM (inactive) | > 10 µM (inactive) | 2.96 µM (inactive) | 3.27 µM (inactive) | 5.07 µM (inactive) | > 3.74 µM (inactive) | 1.66 µM (inactive) | 5.22 µM (inactive) | > 10 µM (inactive) |
| CCCC(=O)NC1=C(Cl)C(=O)c2ccccc2C1=O | 1.73 µM (inactive) | 3 µM (inactive) | 1.89 µM (inactive) | 4.22 µM (inactive) | 1.68 | 2.07 µM (inactive) |  | 3.03 µM (inactive) | 2.29 µM (inactive) | 4.51 µM (inactive) | 4.59 µM (inactive) | 10.8 µM (inactive) | 5.09 µM (inactive) | 4.29 µM (inactive) | 2.96 µM (inactive) | 13.3 µM (inactive) | 3.42 µM (inactive) | 4.11 µM (inactive) | 3.32 µM (inactive) | 2.45 µM (inactive) |
| COc1cc2c(c3oc4c(O)cccc4c(=O)c13)CC(C(C)(O)CCl)O2 (stereo unspecified) | 0.114 µM (active) | 1.16 µM (inactive) | 0.373 µM (active) | 1.32 µM (inactive) | 1.04 | 0.0242 µM (active) |  | 0.512 µM (active) | 1.21 µM (inactive) | 1.45 µM (inactive) | 6.34 µM (inactive) | 0.209 µM (active) | 3.35 µM (inactive) | 1.98 µM (inactive) | 0.807 µM (active) | 15.1 µM (inactive) | 0.13 µM (active) | 0.51 µM (active) | 0.679 µM (active) | 0.443 µM (active) |
